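These data come from cells grown in 96-well plates and exposed to compound for 48 hours at five concentrations. GI50 is the concentration that inhibits growth by half.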 Calls of active or inactive are those of the source. Cut-off read from the data, not from the text of the source: active = GI50 up to about 1.1 µM and inactive = higher.
Columns and labels:
Test in all cases: inhibition of tumour cell growth, NCI panel, 48 h
786-0 = system: 786-0
CAKI-1 = system: CAKI-1
EKVX = system: EKVX
HCT-15 = system: HCT-15
HOP-62 = system: HOP-62
IGROV-1 = system: IGROV-1
LOX IMVI = system: LOX IMVI
M14 = system: M14
Malme-3M = system: Malme-3M
NCI-H522 = system: NCI-H522
OVCAR-3 = system: OVCAR-3
OVCAR-4 = system: OVCAR-4
OVCAR-5 = system: OVCAR-5
SF-295 = system: SF-295
SK-MEL-5 = system: SK-MEL-5
UACC-257 = system: UACC-257
UACC-62 = system: UACC-62
NCI-H226 = system: NCI-H226

| Structure (SMILES) | GI50 (786-0) | GI50 (CAKI-1) | GI50 (EKVX) | GI50 (HCT-15) [µM] | GI50 (HOP-62) | GI50 (IGROV-1) | GI50 (LOX IMVI) | GI50 (M14) | GI50 (Malme-3M) | GI50 (NCI-H522) | GI50 (OVCAR-3) | GI50 (OVCAR-4) | GI50 (OVCAR-5) | GI50 (SF-295) | GI50 (SK-MEL-5) | GI50 (UACC-257) | GI50 (UACC-62) | GI50 (NCI-H226) |
| --- | --- | --- | --- | --- | --- | --- | --- | --- | --- | --- | --- | --- | --- | --- | --- | --- | --- | --- |
| Cc1cc(NS(=O)(=O)c2ccc(NC(=O)c3cccc4c(Nc5ccc(S(=O)(=O)Nc6cc(C)on6)cc5)c5ccccc5nc34)cc2)no1 | 33 µM (inactive) | 70.1 µM (inactive) | > 100 µM (inactive) | > 100 | 47.8 µM (inactive) | 27.7 µM (inactive) | 30.5 µM (inactive) | 72.6 µM (inactive) | > 100 µM (inactive) | 20 µM (inactive) | 87.3 µM (inactive) | 17.2 µM (inactive) | > 100 µM (inactive) | > 100 µM (inactive) | 69.2 µM (inactive) | > 100 µM (inactive) | 17.5 µM (inactive) |  |
| Cc1cc2c(c3c1c1ccccc1n3C)C(=O)c1ccccc1C2=O | > 100 µM (inactive) |  | > 100 µM (inactive) | > 100 | > 100 µM (inactive) | 45.7 µM (inactive) | > 100 µM (inactive) | > 100 µM (inactive) | > 100 µM (inactive) | 75.3 µM (inactive) | > 100 µM (inactive) | > 100 µM (inactive) | > 100 µM (inactive) | > 100 µM (inactive) | > 100 µM (inactive) | > 100 µM (inactive) | > 100 µM (inactive) |  |
| CC1=NN(C(=O)c2ccc(Cl)cc2)C(=O)/C1=C/c1ccco1 | > 100 µM (inactive) | > 100 µM (inactive) | > 100 µM (inactive) | > 100 | > 100 µM (inactive) | > 100 µM (inactive) | > 100 µM (inactive) | > 100 µM (inactive) | > 100 µM (inactive) | > 100 µM (inactive) | > 100 µM (inactive) | > 100 µM (inactive) | > 100 µM (inactive) | > 100 µM (inactive) | > 100 µM (inactive) | > 100 µM (inactive) | > 100 µM (inactive) |  |
| Cc1ccc(NC(=O)C2C(=O)C(=O)N(c3ccc(C)cc3)C2=O)cc1 (stereo unspecified) | > 100 µM (inactive) |  | > 100 µM (inactive) | > 100 | 93.3 µM (inactive) | > 100 µM (inactive) |  | > 100 µM (inactive) | > 100 µM (inactive) | > 100 µM (inactive) |  | > 100 µM (inactive) | > 100 µM (inactive) | > 100 µM (inactive) | > 100 µM (inactive) | > 100 µM (inactive) | > 100 µM (inactive) |  |
| Cc1ccccc1CN1CC=c2ccccc2=N1 | > 100 µM (inactive) | > 100 µM (inactive) | 93.5 µM (inactive) | > 100 | > 100 µM (inactive) | > 100 µM (inactive) | > 100 µM (inactive) | > 100 µM (inactive) | > 100 µM (inactive) |  | > 100 µM (inactive) | > 100 µM (inactive) | > 100 µM (inactive) | > 100 µM (inactive) | 97.9 µM (inactive) | > 100 µM (inactive) | > 100 µM (inactive) | > 100 µM (inactive) |
| CC(C)(C)N/N=N/c1cn(C2OC(CO)C(O)C2O)c(=O)[nH]c1=O (stereo unspecified) | > 100 µM (inactive) | > 100 µM (inactive) | > 100 µM (inactive) | 43.5 | > 100 µM (inactive) | > 100 µM (inactive) | 41.7 µM (inactive) | > 100 µM (inactive) | > 100 µM (inactive) | > 100 µM (inactive) | > 100 µM (inactive) |  | > 100 µM (inactive) | > 100 µM (inactive) | > 100 µM (inactive) | > 100 µM (inactive) | > 100 µM (inactive) | > 100 µM (inactive) |
| COC(=O)C(CCC1(C)OCCO1)C(C)=O (stereo unspecified) | > 100 µM (inactive) |  | > 100 µM (inactive) | > 100 | > 100 µM (inactive) | > 100 µM (inactive) | > 100 µM (inactive) | > 100 µM (inactive) | > 100 µM (inactive) | > 100 µM (inactive) | > 100 µM (inactive) | > 100 µM (inactive) | > 100 µM (inactive) | > 100 µM (inactive) | > 100 µM (inactive) | > 100 µM (inactive) |  | > 100 µM (inactive) |
| CCCCCCCCCCCCCS(=O)(=O)O | > 100 µM (inactive) |  | > 100 µM (inactive) | > 100 | > 100 µM (inactive) | > 100 µM (inactive) | > 100 µM (inactive) | > 100 µM (inactive) | > 100 µM (inactive) | > 100 µM (inactive) | > 100 µM (inactive) | > 100 µM (inactive) | > 100 µM (inactive) | > 100 µM (inactive) | > 100 µM (inactive) | > 100 µM (inactive) | > 100 µM (inactive) | > 100 µM (inactive) |
